Measured values as given in patent US20050148633A1 (priority 2003, published 2005).

Test system: IL-2 production
Test: Inhibition of IL-2 production in PHA-activated Jurkat cells (ELISA)
Assay type: cell-based
Conditions: Homo sapiens
Method: Jurkat cells were placed in a 96 well plate (0.5 million cells per well in 1% FBS medium) then test compounds of this invention were added at different concentrations. After 10 minutes, the cells were activated with PHA (final concentration 2.5 μg/mL) and incubated for 20 hours at 37° C. under CO2. The final volume was 200 μL. Following incubation, the cells were centrifuged and the supernatants collected and stored at −70° C. prior to assaying for IL-2 production. A commercial ELISA kit (IL-2 Eli-pair, Diaclone Research, Besancon, France) was used to detect production of IL-2, from which dose response curves were obtained. The IC50 value was calculated as the concentration at which 50% of maximum IL-2 production after stimulation was inhibited versus a non-stimulation control.

[1] = PHA 2.5 μg/mL, 20 hours, value bins

IC50 [1] | SMILES | further results
< 100 nM | Cc1nnsc1C(=O)Nc1ccc(-c2cc(OC(F)(F)F)ccc2N(C)C)cc1 [Compound 73, 4-methyl-[1,2,3]-thiadiazole-5-carboxylic acid {2′-(N,N-dimethylamino)-5′-trifluoromethoxybiphenyl-4-yl}-amide] | 
< 100 nM | COc1ccc(OC)c(-c2ccc(NC(=O)c3ccncc3C)cc2)c1 [Compound 63, 3-methyl-pyridine-4-carboxylic acid (2′,5′-dimethoxy-biphenyl-4-yl)-amide] | 
100 to 500 nM | N#Cc1cc(C(F)(F)F)cnc1-c1ccc(NC(=O)c2cccc(F)c2F)cc1 [Compound 37, N-[4-(3-cyano-5-trifluoromethyl-pyrid-2-yl)-phenyl]-2,3-difluoro-benzamide] | 
100 to 500 nM | Cc1ccsc1C(=O)Nc1ccc(-n2c(C(F)(F)F)nnc2C(F)(F)F)cc1 [Compound 34, 3-Methyl-thiophene-2-carboxylic acid-(4-(3,5-bis-trifluoromethyl-[1,2,4]triazol-4-yl)-phenyl)-amide] | 
 | Cc1nc(C(=O)Nc2ccc(-c3ccccc3C(F)(F)F)cc2)c(C(F)(F)F)o1 [Compound 13, 2-Methyl-5-trifluoromethyl-oxazole-4-carboxylic acid (2′-trifluoromethyl-biphenyl-4-yl)-amide] | IC50 (PHA, bin >1 μM): > 1000 nM
< 100 nM | O=C(Nc1ccc(-c2cc(C(F)(F)F)ccc2Cl)cc1)c1c(F)cccc1F [Compound 86, N-(2′-chloro-5′-trifluoromethylbiphenyl-4-yl)-2,6-difluorobenzamide] | 
< 100 nM | Cc1cnccc1C(=O)Nc1ccc(-c2cc(C(F)(F)F)ccc2Cl)cc1 [Compound 74, 3-methyl-pyridine-4-carboxylic acid (2′-chloro-5′-trifluoromethylbiphenyl-4-yl)-amide] | 
< 100 nM | O=C(Nc1ccc(-c2cc(Cl)ccc2Cl)cc1)c1c(F)cccc1F [Compound 88, N-(2′,5′-dichlorobiphenyl-4-yl)-2,6-difluorobenzamide] | 
< 100 nM | O=C(Nc1ccc(-c2cc(C(F)(F)F)ccc2C(F)(F)F)cc1)c1cc(F)ccc1F [Compound 28, N-(2′,5′-Bis-trifluoromethyl-biphenyl-4-yl)-2,5-difluoro-benzamide] | 
< 100 nM | Cc1ccc(C)c(-c2ccc(NC(=O)c3cccc(F)c3F)cc2)c1 [Compound 47, N-(2′,5′-dimethyl-biphenyl-4-yl)-2,3-difluorobenzamide] | 
100 to 500 nM | O=C(Nc1ccc(-c2cc(C(F)(F)F)ccc2C(F)(F)F)cc1)c1ccno1 [Compound 42, Isoxazole-5-carboxylic acid (2′,5′-bis-trifluoromethyl-biphenyl-4-yl)-amide] | 
100 to 500 nM | Cc1ncccc1C(=O)Nc1ccc(-c2cc(C(F)(F)F)ccc2C(F)(F)F)cc1 [Compound 60, 2-methyl-pyridine-3-carboxylic acid (2′,5′-bis-trifluoromethyl-biphenyl-4-yl)-amide] | 
100 to 500 nM | Cc1cnccc1C(=O)Nc1ccc(-c2ccccc2C(C)C)cc1 [Compound 77, 3-methyl-pyridine-4-carboxylic acid (2′-isopropyl-biphenyl-4-yl)-amide] | 
< 100 nM | Cc1noc(C)c1C(=O)Nc1ccc(-c2cc(C(F)(F)F)ccc2C(F)(F)F)cc1 [Compound 43, 3,5-dimethylisoxazole-4-carboxylic acid (2′,5′-bis-trifluoromethyl-biphenyl-4-yl)-amide] | 
 | CN(C)C(=O)c1ccccc1-c1ccc(NC(=O)c2cccc(F)c2F)cc1 [Compound 6, 4′-(2,3-Difluoro-benzoylamino)-biphenyl-2-carboxylic acid dimethylamide] | IC50 (PHA, bin >1 μM): > 1000 nM
< 100 nM | COc1ccc(Cl)cc1-c1ccc(NC(=O)c2cc(F)c(F)cc2F)cc1 [Compound 84, N-(2′-methoxy-5′-chloro-biphenyl-4-yl)-2,4,5-trifluorobenzamide] | 
100 to 500 nM | Cc1cc2ccccn2c1-c1ccc(NC(=O)c2snnc2C)cc1 [Compound 91, 4-methyl-N-[4-(2-methyl-indolizin-3-yl)-phenyl]-[1,2,3]thiadiazole 5-carboxylic acid amide] | 
100 to 500 nM | O=C(Nc1ccc(-c2ccccc2C(F)(F)F)cc1)c1cccc(F)c1F [Compound 15, 2,3-Difluoro-N-(2′-trifluoromethyl-biphenyl-4-yl)-benzamide] | 
 | Cc1cc(C(=O)Nc2ccc(-c3cc(C(F)(F)F)ccc3C(F)(F)F)cc2)no1 [Compound 39, 5-Methyl-isoxazol-3-carboxylic acid (2′,5′-bis-trifluoromethyl-biphenyl-4-yl)-amide] | IC50 (PHA, bin 500 nM-1 μM): 500 to 1000 nM
100 to 500 nM | COc1ccccc1C(=O)Nc1ccc(-c2cc(C(F)(F)F)ccc2C(F)(F)F)cc1 [Compound 38, N-(2′,5′-bis-trifluoromethyl-biphenyl-4-yl)-2-methoxy-benzamide] | 
100 to 500 nM | O=C(Nc1ccc(-c2ccccc2C(F)(F)F)cc1)c1ccncc1 [Compound 8, N-(2′-Trifluoromethyl-biphenyl-4-yl)-isonicotinamide] | 
< 100 nM | Cc1ccc(C)c(-c2ccc(NC(=O)c3c(F)cccc3F)cc2)c1 [Compound 87, N-(2′,5′-dimethylbiphenyl-4-yl)-2,6-difluorobenzamide] | 

IC50 [1] | SMILES | further results
< 100 nM | Cc1ccc(C(F)(F)F)c(-c2ccc(NC(=O)c3c(F)cccc3F)cc2)c1 [Compound 126, N-(2′-trifluoromethyl-5′-methyl-biphenyl-4-yl)-2,6-difluoro-benzamide] | 
< 100 nM | O=C(Nc1ccc(-c2cc(C(F)(F)F)ccc2C(F)(F)F)cc1)c1ccncc1F [Compound 68, 3-fluoro-pyridine-4-carboxylic acid (2′,5′-bis-trifluoromethylbiphenyl-4-yl)-amide] | 
< 100 nM | Fc1cccc(F)c1CNc1ccc(-c2cc(C(F)(F)F)ccc2C(F)(F)F)cc1 [Compound 127, N-(2′,5′-bis-trifluoromethyl-biphenyl-4-yl)-2,6-difluoro-benzyl amine] | 
 | O=C(Nc1ccc(-n2c(-c3cccs3)nnc2C(F)(F)F)cc1)c1cccc(F)c1F [Compound 35] | IC50 (PHA, bin 500 nM-1 μM): 500 to 1000 nM
 | O=C(Nc1ccc(-c2ccccc2C(F)(F)F)cc1)c1cccnc1 [Compound 7, N-(2′-Trifluoromethyl-biphenyl-4-yl)-nicotinamide] | IC50 (PHA, bin 500 nM-1 μM): 500 to 1000 nM
100 to 500 nM | O=C(Nc1ccc(-n2c(C(F)(F)F)nnc2C(F)(F)F)cc1)c1cccc(F)c1F [Compound 32, N-[4-(3,5-Bis-trifluoromethyl-[1,2,4]triazol-4-yl)-phenyl]-2,3-difluoro-benzamide] | 
100 to 500 nM | Cc1ccccc1-c1ccc(NC(=O)c2ccncc2F)cc1 [Compound 2, 3-Fluoro-N-(2′-methyl-biphenyl-4-yl)-isonicotinamide] | 
< 100 nM | COc1ccc(Cl)cc1-c1ccc(NCc2c(F)cccc2F)cc1 [Compound 129, N-(2′-methoxy-5′-chloro-biphenyl-4-yl)-2,6-difluoro-benzyl amine] | 
100 to 500 nM | O=C(Nc1ccc(-c2c(C(F)(F)F)cc3ccccn23)cc1)c1cc(F)ccc1F [Compound 90, 2,5-Difluoro-N-[4-(2-trifluoromethyl-indolizin-3-yl)-phenyl]-benzamide] | 
 | CCn1nc(C)cc1C(=O)Nc1ccc(-c2ccccc2C(F)(F)F)cc1 [Compound 14, 2-Ethyl-5-methyl-2H-pyrazole-3-carboxylic acid (2′-trifluoromethyl-biphenyl-4-yl)-amide] | IC50 (PHA, bin >1 μM): > 1000 nM
100 to 500 nM | O=C(Nc1ccc(-c2cc(C(F)(F)F)ccc2C(F)(F)F)cc1)c1csnn1 [Compound 41, [1,2,3]-Thiadiazole-4-carboxylic acid (2′,5′-bis-trifluoromethyl-biphenyl-4-yl)-amide] | 
100 to 500 nM | COc1ccc(N(C)C)c(-c2ccc(NC(=O)c3ccncc3C)cc2)c1 [Compound 80, 3-methyl-pyridine-4-carboxylic acid {2′-(N,N-dimethylamino)-5′-methoxybiphenyl-4-yl}-amide] | 
100 to 500 nM | O=C(Nc1ccc(-c2cc(C(F)(F)F)ccc2F)cc1)c1cccc(F)c1F [Compound 19, 2,3-Difluoro-N-(2′-fluoro-5′-trifluoromethyl-biphenyl-4-yl)-benzamide] | 
< 100 nM | COc1ccc(Cl)cc1-c1ccc(NC(=O)c2ccncc2C)cc1 [Compound 65, 3-methyl-pyridine-4-carboxylic acid (2′-methoxy-5′-chlorobiphenyl-4-yl)-amide] | 
< 100 nM | O=C(Nc1ccc(-c2cc(C(F)(F)F)ccc2C(F)(F)F)cc1)c1c(F)cccc1F [Compound 85, N-(2′,5′-bis-trifluoromethylbiphenyl-4-yl)-2,6-difluorobenzamide] | 
 | Cc1nc(C)c(C(=O)Nc2ccc(-c3ccccc3C(F)(F)F)cc2)s1 [Compound 11, 2,4-Dimethyl-thiazole-5-carboxylic acid (2′-trifluoromethyl-biphenyl-4-yl)-amide] | IC50 (PHA, bin >1 μM): > 1000 nM
100 to 500 nM | O=C(Nc1ccc(-c2ccccc2C(F)(F)F)cc1)c1cc(F)ccc1F [Compound 16, 2,5-Difluoro-N-(2′-trifluoromethyl-biphenyl-4-yl)-benzamide] | 
 | O=C(Nc1ccc(-c2ccccc2C(F)(F)F)cc1F)c1cccc(F)c1F [Compound 17, 2,3-Difluoro-N-(3-fluoro-2′-trifluoromethyl-biphenyl-4-yl)-benzamide] | IC50 (PHA, bin >1 μM): > 1000 nM
< 100 nM | O=C(Nc1ccc(-c2c(C(F)(F)F)cc3ccccn23)cc1)c1cccc(F)c1F [Compound 21, 2,3-Difluoro-N-[4-(2-trifluoromethyl-indolizin-3-yl)-phenyl]-benzamide] | 
 | O=C(Nc1ccc(-c2ccccc2C(F)(F)F)cc1)c1ccc(F)cc1 [Compound 10, 4-Fluoro-N-(2′-trifluoromethyl-biphenyl-4-yl)-benzamide] | IC50 (PHA, bin >1 μM): > 1000 nM
< 100 nM | CCc1ccccc1-c1ccc(NC(=O)c2ccncc2C)cc1 [Compound 76, 3-methyl-pyridine-4-carboxylic acid (2′-ethyl-biphenyl-4-yl)-amide] | 
